Reference: patent US11597936B2, “Recombinant Dgkk gene for fragile X syndrome gene therapy” (UNIVERSITE DE STRASBOURG, priority 2016, dated 2023)

Experiments:
[1] = test system: CA1 pyramidal neurons; assay: Dendritic spine morphology and dynamics in hippocampal organotypic slice cultures; type: cell-based, mouse
From the text: A short hairpin RNA designed to target Dgkk (shRNA Dgkk, 5′-[…], SEQ ID No: 6) and the selected shRNA-scramble sequence (5′-[…], SEQ ID No: 7) that has no match in silico in the mouse genome, were cloned under the control of the mU6 promoter into a pAAV-MCS derived plasmid expressing enhanced green fluorescent protein (EGFP) under the control of a CMV promoter. Overexpression of Dgkk was achieved by cloning HA-tagged Δ5′reg-Dgkk under the control of the human Synapsin-1 gene promoter replacing EGFP in the control plasmid pENN.AAV.hSynapsin1.EGFP.RBG (provided by the Penn Vector Core at University of Pennsylvania). Recombinant adeno-associated virus serotype 9 (AAV9) co-expressing EGFP and shRNA (AAV9-EGFP-shRNA-Dgkk and control AAV9-EGFP-shRNA-scramble) as well as AAV9 expressing HA-Dgkk or EGFP (AAV9-hSynapsin1-HA-Dgkk and control AAV9-hSynapsin1-EGFP) were generated. AAV production was carried out using the AAV Helper-Free system (Agilent Technologies) with some modifications. AAV9 vectors were generated by triple transfection of 293T/17 cell line using either pAAV-EGFP-shRNA-Dgkk or pAAV-EGFP-shRNA-scramble, pAAV-hSynapsin1-HA-Δ5′reg-Dgkk or pENN.AAV.hSynapsin1.EGFP.RBG together with pAAV2/9 (Penn Vector Core) containing cap genes of AAV serotype 9 and pHelper. Two days after transfection, cells were collected, lysed by three freeze/thaw cycles in dry ice-ethanol and 37° C. baths, further treated with 100 U/ml Benzonase (Novagen) for 30 min at 37° C. and clarified by centrifugation. Viral vectors were purified by iodixanol (Optiprep™, Axis Shield) gradient ultracentrifugation followed by dialysis and concentration against PBS containing 0.5 mM MgCl2 using centrifugal filters (Amicon Ultra-15 100 K). Viral particles were quantified by real time PCR using a linearized standard plasmid pAAV-EGFP.
Hippocampal organotypic slice cultures (400 μm thick) were prepared from postnatal 5-6 day old C57BL/6 Fmr1+/y or its Fmr1−/y littermate mice using a protocol approved by the Geneva veterinary office and maintained under culture conditions as described (De Roo M et al, 2008, Cereb Cortex, 18(1):151-161). Transfection was carried out at DIV7 with a biolistic method (Helios Gene Gun, Bio-Rad) using gold beads coated with mRFP and either pAAV-EGFP-shRNA-Dgkk, pAAV-EGFP-shRNA-scramble, pAAV-hSynapsin1-EGFP or pAAV-hSynapsin1-HA-[…]. Repetitive confocal imaging was performed as previously described (De Roo M et al, 2008, Cereb Cortex, 18(1):151-161). Briefly, dendritic segments of CA1 transfected neurons (30-40 μm in length) were imaged from DIV12 to DIV15 (at 0, 5, 24, 48 and 72 hours) using an Olympus Fluoview 300 system and analysis of the Z-stacked images so obtained was performed using Osirix software.

[2] = test system: Cos-1 cells; assay: Western blot (anti-HA) of Dgkk constructs in Cos-1 cells, siFmr1 versus siRNA control; type: cell-based; conditions: siFmr1 vs siCtrl, HA signal normalized to GAPDH
Description: COS cells (ATCC® CRL-1650™) were grown in DMEM supplemented with 10% fetal calf serum, 1 g/l glucose in the presence of antibiotics at 37° C. in 5% CO2. The day before transfection, 4×10^4 cells were plated into 24-well format plates in 500 μl of antibiotic-free medium.
Transfections of sh-RNAs were performed in triplicate with Lipofectamine 2000 (Invitrogen, Carlsbad, Calif.) on 60 000 cells as directed by the manufacturer with 20 pmol of siRNA (Control or On Target plus Smart Pool mouse FMR1, Thermo) in a final volume of 600 μl. Twenty-four hours later, 0.6 μg of a plasmid construction and 20 pmol of shRNA were co-transfected as above. Fourty-eight hours later, cells washed twice in PBS were lysed directly in the loading buffer (100 mM Tris-HCl, pH 6.8, 4% SDS, 30% glycerol, 1.4 M ß-mercaptoethanol, and bromophenol blue) for 3 min at 95° C. Proteins were analyzed on a 10% SDS-polyacrylamide gel and immunoblotted onto PVDF (Millipore) in Tris-glycine-SDS/20% ethanol buffer for 1 h at 200 mA. […]
In a second series of experiments, the inventors aimed to determine which part of the 5′ region of Dgkk is important in the control of Dgkk expression by FMRP. […] Then, as previously described, Cos-1 cells were transfected by these constructs in the presence or absence of Fmr1 siRNA and the expression of the constructs was analyzed by western-blot.

[3] = versus shRNA-scramble transfected cells

| Substance | spine density ([1]; CA1 pyramidal neurons, biolistic transfection) | lost spines per 24 h [1, 3] | multi-head spines [1, 3] | mushroom spines [1, 3] | new spine formation per 24 h [1, 3] | reduction of the expression level of the construct when FMRP expression is reduced [2] |
| --- | --- | --- | --- | --- | --- | --- |
| shRNA-Dgkk: short hairpin RNA designed to target Dgkk (SEQ ID No: 6), in pAAV plasmid expressing EGFP (guide GGAATGCACTACTGGTATTCC; shRNA hairpin expressed from pAAV-EGFP vector) | Absence of changes | Increase | Increase | decrease | Increase | – |
| Dgkk-FL: plasmid carrying all mouse Dgkk exons, its 5′UTR, its 3′UTR and a HA tag (SEQ ID No: 8) | – | – | – | – | – | about 70% |
